Assays:
Type in all cases: binding
[1] = target: T1, human MDM2 protein (amino acids 2-188) (Homo sapiens, UniProt Q00987); assay: p53-MDM2 TR-FRET assay (p53-MDM2 Assay 1); conditions: 1.25 nM MDM2-biotinylated, 10 nM Cy5-p53 peptide; read-out: IC50 (μM) of p53-Hdm2 inhibition (TR-FRET) Assay 1
T1 construct: human MDM2 protein (amino acids 2-188); made in house
How it was run: (§1)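 C-terminally biotinylated MDM2 (aa 2-188, 1.25 nM) or MDM4 (aa 2-185, 2.5 nM) with Eu-streptavidin (0.625 nM), 15 min preincubation, then 10 nM Cy5-p53 peptide (aa18-26), 15 min room temperature; TR-FRET 665/620 nm ratio, IC50 by curve fit. Modified MDM2 Assay 2 uses 0.1 nM MDM2 and 0.1 nM Eu-streptavidin.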

[2] = target: T1, human MDM2 protein (amino acids 2-188); assay: p53-MDM2 TR-FRET assay, modified (p53-MDM2 Assay 2); conditions: 0.1 nM MDM2, 0.1 nM Europium labeled streptavidin; read-out: IC50 (nM) of p53-Hdm2 inhibition (TR-FRET) Assay 2
Experimental: Time Resolved Fluorescence Energy Transfer (TR-FRET) Assay
The inhibition of p53-MDM2 and p53-MDM4 interactions is measured by time resolved fluorescence energy transfer (TR-FRET). Fluorescence energy transfer (or Foerster resonance energy transfer) describes an energy transfer between donor and acceptor fluorescent molecules. For this assay, human MDM2 protein (amino acids 2-188) and human MDM4 protein (amino acids 2-185), tagged with a C-terminal biotin moiety, are used in combination with a Europium labeled streptavidin (Perkin Elmer, Inc., Waltham, Mass., USA) serving as the donor fluorophore. The p53 derived, Cy5 labeled peptide Cy5-TFSDLWKLL (p53 aa18-26) is the energy acceptor. Upon excitation of the donor molecule at 340 nm, binding interaction between MDM2 or MDM4 and the p53 peptide induces energy transfer and enhanced response at the acceptor emission wavelength at 665 nm. Disruption of the formation of the p53-MDM2 or p53-MDM4 complex due to an inhibitor molecule binding to the p53 binding site of MDM2 or MDM4 results in increased donor emission at 620 nm. The ratiometric FRET assay readout is calculated from the raw data of the two distinct fluorescence signals measured in time resolved mode (fluorescence 665 nm/fluorescence 620 nm×1000).
After addition of 1.25 nM MDM2-biotinylated or 2.5 nM MDM4-biotinylated (internal preparations), and 0.625 nM Europium labeled streptavidin (Perkin Elmer), the solution is pre-incubated for 15 minutes at room temperature, then 10 nM Cy5-p53 peptide (internal preparation) is added before an incubation at room temperature for 15 minutes prior to reading the plate. For measurement of samples, a Victor II microplate reader (Perkin Elmer) is used with the following settings: Excitation 340 nm, Emission Donor 620 nm and Emission Acceptor 665 nm. IC50 values are calculated by curve fitting using XLfit. If not specified, reagents are purchased from Sigma-Aldrich Chemie GmBH, Buchs, Switzerland.
This assay was used to evaluate compounds displaying inhibition of p53-MDM2 interaction and p53-MDM4 interaction at IC50s of 0.005 to 50 μM (p53-MDM2 Assay 1 and p53-MDM4 Assay 1, respectively). For selected compounds displaying IC50s between […] on MDM2, a slightly modified assay is used with the following adaptations: 0.1 nM MDM2, 0.1 nM Europium labeled streptavidin and Tecan genios Pro is used as a microplate reader for the fluorescence measurements (p53-MDM2 Assay 2).

[3] = target: T2, human MDM4 protein (amino acids 2-185) (Homo sapiens, UniProt O15151); assay: p53-MDM4 TR-FRET assay (p53-MDM4 Assay 1); conditions: 2.5 nM MDM4-biotinylated, 10 nM Cy5-p53 peptide; read-out: IC50 (μM) of p53-Hdm4 inhibition (TR-FRET) Assay 1
T2 construct: human MDM4 protein (amino acids 2-185); made in house
T2 sequence (O15151 2-185): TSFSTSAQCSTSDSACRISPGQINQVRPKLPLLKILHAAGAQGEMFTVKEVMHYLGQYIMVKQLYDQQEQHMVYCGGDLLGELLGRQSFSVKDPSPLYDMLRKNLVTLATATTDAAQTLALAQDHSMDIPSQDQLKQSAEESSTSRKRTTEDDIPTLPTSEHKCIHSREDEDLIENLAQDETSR
How it was run: as §1

T1 sequence (Q00987 2-188): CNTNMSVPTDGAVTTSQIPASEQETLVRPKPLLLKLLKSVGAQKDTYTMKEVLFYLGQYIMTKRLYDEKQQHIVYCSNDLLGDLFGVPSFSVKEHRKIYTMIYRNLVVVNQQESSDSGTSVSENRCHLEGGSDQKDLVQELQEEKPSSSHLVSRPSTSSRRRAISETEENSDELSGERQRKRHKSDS

Row | SMILES | IC50 [1] [µM] | IC50 [2] [nM] | IC50 [3] [µM]
1 | CNC(=O)N1C2CCC1CC(C(C)(O)c1ccc(N3C(=O)Cc4cc(OC)c(OC(C)C)cc4[C@@H]3c3ccc(Cl)cc3)cc1)C2 (stereo partly drawn) [Example 109, 3-(1-{4-[(S)-1-(4-Chloro-phenyl)-7-isopropoxy-6-methoxy-3-oxo-3,4-dihydro-1H-isoquinolin-2-yl]-phenyl}-1-hydroxy-ethyl)-8-aza-bicyclo[3.2.1]octane-8-carboxylic acid methylamide] | 0.0024 | 1.7 | 2.5
2 | COc1cc2c(cc1OC(C)C)[C@H](c1ccc(Cl)cc1)N(c1ccc(C(C)(O)C3CC4CCC(C3)N4C)cc1)C(=O)C2 (stereo partly drawn) [Example 105, (S)-1-(4-Chloro-phenyl)-2-{4-[1-hydroxy-1-(8-methyl-8-aza-bicyclo[3.2.1]oct-3-yl)-ethyl]-phenyl}-7-isopropoxy-6-methoxy-1,4-dihydro-2H-isoquinolin-3-one] | 0.0043 | 2.25 | 4.12
3 | COc1cc2c(cc1OC(C)C)[C@H](c1ccc(Cl)cc1)N(c1ccc(C(C)(O)C3CC4CCCC(C3)N4)cc1)C(=O)C2 (stereo partly drawn) [Example 116, (S)-2-{4-[1-(9-Aza-bicyclo[3.3.1]non-3-yl)-1-hydroxy-ethyl]-phenyl}-1-(4-chloro-phenyl)-7-isopropoxy-6-methoxy-1,4-dihydro-2H-isoquinolin-3-one] | 0.0036 | 3.4 | 3.93
4 | COc1cc2c(cc1OC(C)C)[C@H](c1ccc(Cl)cc1)N(c1ccc(C(C)(O)C3CC4CCCC(C3)O4)cc1)C(=O)C2 (stereo partly drawn) [Example 161, (S)-1-(4-Chloro-phenyl)-2-{4-[1-hydroxy-1-(9-oxa-bicyclo[3.3.1]non-3-yl)-ethyl]-phenyl}-7-isopropoxy-6-methoxy-1,4-dihydro-2H-isoquinolin-3-one] | 0.0041 | 3.72 | 4.52
5 | COc1cc2c(cc1OC(C)C)[C@H](c1ccc(Cl)cc1)N(c1ccc(C(C)(O)C3CCN(C(=O)F)CC3)cc1)C(=O)C2 (mixture of isomers) [Example 90, 4-(1-{4-[(S)-1-(4-Chloro-phenyl)-7-isopropoxy-6-methoxy-3-oxo-3,4-dihydro-1H-isoquinolin-2-yl]-phenyl}-1-hydroxy-ethyl)-piperidine-1-carbonyl fluoride] | 0.0026 | 1.38 | 2.31
6 | COc1cc2c(cc1OC(C)C)[C@H](c1ccc(Cl)cc1)N(c1ccc(C(C)(O)C3CC4CCC(C3)N4C(=O)CO)cc1)C(=O)C2 (stereo partly drawn) [Example 114, (S)-1-(4-Chloro-phenyl)-2-(4-{1-hydroxy-1-[8-(2-hydroxy-acetyl)-8-aza-bicyclo[3.2.1]oct-3-yl]-ethyl}-phenyl)-7-isopropoxy-6-methoxy-1,4-dihydro-2H-isoquinolin-3-one] | 0.0045 | 4.76 | 4.92
7 | COc1cc2c(cc1OC(C)C)[C@H](c1ccc(Cl)cc1)N(c1ccc(C(C)(O)C3C4COCC3CN(C=O)C4)cc1)C(=O)C2 (stereo partly drawn) [Example 157, 9-(1-{4-[(S)-1-(4-Chloro-phenyl)-7-isopropoxy-6-methoxy-3-oxo-3,4-dihydro-1H-isoquinolin-2-yl]-phenyl}-1-hydroxy-ethyl)-3-oxa-7-aza-bicyclo[3.3.1]nonane-7-carbaldehyde] | – | 4.89 | –
8 | COc1cc2c(cc1OC(C)C)[C@H](c1ccc(Cl)cc1)N(c1ccc(C(C)(O)C3C4CNCC3COC4)cc1)C(=O)C2 (stereo partly drawn) [Example 156, (S)-1-(4-Chloro-phenyl)-2-{4-[1-hydroxy-1-(3-oxa-7-aza-bicyclo[3.3.1]non-9-yl)-ethyl]-phenyl}-7-isopropoxy-6-methoxy-1,4-dihydro-2H-isoquinolin-3-one] | – | 12.6 | –
9 | COc1cc2c(cc1OC(C)C)[C@H](c1ccc(Cl)cc1)N(c1ccc(C(C)(O)[C@H]3CCCNC3)cc1)C(=O)C2 (stereo partly drawn) [Example 180, (S)-1-(4-Chloro-phenyl)-2-[4-((S)-1-hydroxy-1-piperidin-3-yl-ethyl)-phenyl]-7-isopropoxy-6-methoxy-1,4-dihydro-2H-isoquinolin-3-one] | – | 2.25 | –
10 | COc1cc2c(cc1OC(C)C)[C@H](c1ccc(Cl)cc1)N(c1ccc([C@](C)(O)C3CCN(C=O)CC3)cc1)C(=O)C2 (single isomer, unassigned) [Example 124] | – | 150 | –
11 | COc1cc2c(cc1OC(C)C)[C@H](c1ccc(Cl)cc1)N(c1ccc(C(C)(O)C3CC4CCCC(C3)N4C(=O)COC(C)=O)cc1)C(=O)C2 (stereo partly drawn) [Example 121, Acetic acid 2-[3-(1-{4-[(S)-1-(4-chloro-phenyl)-7-isopropoxy-6-methoxy-3-oxo-3,4-dihydro-1H-isoquinolin-2-yl]-phenyl}-1-hydroxy-ethyl)-9-aza-bicyclo[3.3.1]non-9-yl]-2-oxo-ethyl ester] | – | 3.44 | –
12 | COc1cc2c(cc1OC(C)C)[C@H](c1ccc(Cl)cc1)N(c1ccc([C@](C)(O)C3CCN(C(=O)CO)CC3)cc1)C(=O)C2 (single isomer, unassigned) [Example 134] | – | 141 | –
13 | COc1cc2c(cc1OC(C)C)[C@H](c1ccc(Cl)cc1)N(c1ccc([C@](C)(O)C3CCN(C(=O)COC(C)=O)CC3)cc1)C(=O)C2 (single isomer, unassigned) [Example 129] | – | 99.8 | –
14 | COc1cc2c(cc1OC(C)C)[C@H](c1ccc(Cl)cc1)N(c1ccc([C@@](C)(O)C3CC4CCC(C3)O4)cc1)C(=O)C2 (single isomer, unassigned) [Example 159] | – | 0.894 | –
15 | [2H]C([2H])([2H])Oc1cc2c(cc1OC(C)C)[C@H](c1ccc(Cl)cc1)N(c1ccc([C@](C)(O)C3CCS(=O)(=O)CC3)cc1)C(=O)C2 (single isomer, unassigned) [Example 152] | – | 152 | –
16 | COc1cc2c(cc1OC(C)C)[C@H](c1ccc(Cl)cc1)N(c1ccc(C(C)(O)[C@H]3CCCN(C4COC4)C3)cc1)C(=O)C2 (stereo partly drawn) [Example 183, (S)-1-(4-Chloro-phenyl)-2-{4-[1-hydroxy-1-((S)-1-oxetan-3-yl-piperidin-3-yl)-ethyl]-phenyl}-7-isopropoxy-6-methoxy-1,4-dihydro-2H-isoquinolin-3-one] | – | 8.78 | –
17 | [2H]C([2H])([2H])Oc1cc2c(cc1OC(C)C)[C@H](c1ccc(Cl)cc1)N(c1ccc([C@](C)(O)C3CCN(C=O)CC3)cc1)C(=O)C2 (single isomer, unassigned) [Example 154] | – | 78.7 | –
18 | COc1cc2c(cc1OC(C)C)[C@H](c1ccc(Cl)cc1)N(c1ccc(C(C)(O)C3CCN(C[C@@H](O)CO)CC3)cc1)C(=O)C2 (stereo partly drawn) [Example 130, (S)-1-(4-Chloro-phenyl)-2-(4-{1-[1-((R)-2,3-dihydroxy-propyl)-piperidin-4-yl]-1-hydroxy-ethyl}-phenyl)-7-isopropoxy-6-methoxy-1,4-dihydro-2H-isoquinolin-3-one] | – | 2.08 | –
19 | CNC(=O)N1C2CCCC1CC(C(C)(O)c1ccc(N3C(=O)Cc4cc(OC)c(OC(C)C)cc4[C@@H]3c3ccc(Cl)cc3)cc1)C2 (stereo partly drawn) [Example 119, 3-(1-{4-[(S)-1-(4-Chloro-phenyl)-7-isopropoxy-6-methoxy-3-oxo-3,4-dihydro-1H-isoquinolin-2-yl]-phenyl}-1-hydroxy-ethyl)-9-aza-bicyclo[3.3.1]nonane-9-carboxylic acid methylamide] | – | 1.47 | –

Reference: US8859535B2, “Hydroxy substituted isoquinolinone derivatives” (Novartis AG, priority 2011, dated 2014)
